Measured values: patent publication US5260451A, “Substituted pyrrole compounds and use thereof in pharmaceutical compositions” (priority 1989, dated 1993)

Target: T1, cyclo-oxygenase (Bos taurus, UniProt O62664)
T1 construct: formed by bovine thrombocytes following addition of calcium ionophore; endogenous in cells; host or cells: thrombocytes isolated from the supernatant of centrifuged bovine blood
T1 sequence (O62664 25-600): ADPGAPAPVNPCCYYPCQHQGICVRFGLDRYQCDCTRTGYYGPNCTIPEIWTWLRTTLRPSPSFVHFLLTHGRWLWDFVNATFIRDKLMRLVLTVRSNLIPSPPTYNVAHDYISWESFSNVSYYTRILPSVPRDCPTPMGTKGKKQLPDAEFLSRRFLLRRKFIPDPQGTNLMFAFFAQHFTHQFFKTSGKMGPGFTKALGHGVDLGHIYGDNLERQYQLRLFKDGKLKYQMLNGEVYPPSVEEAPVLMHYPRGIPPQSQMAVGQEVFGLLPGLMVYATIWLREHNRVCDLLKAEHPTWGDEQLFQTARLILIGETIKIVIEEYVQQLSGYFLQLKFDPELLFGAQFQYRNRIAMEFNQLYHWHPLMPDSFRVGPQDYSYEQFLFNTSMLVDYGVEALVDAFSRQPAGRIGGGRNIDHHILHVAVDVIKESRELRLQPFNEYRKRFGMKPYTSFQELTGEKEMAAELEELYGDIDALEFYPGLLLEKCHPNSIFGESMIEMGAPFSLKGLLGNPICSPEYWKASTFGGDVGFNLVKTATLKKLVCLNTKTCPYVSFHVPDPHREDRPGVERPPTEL
Assay: inhibition of cyclo-oxygenase (12-HHT or prostaglandin E2 formed by calcium-ionophore stimulated bovine thrombocytes)
Type: cell-based
Details: Table 1, read-out: INHIBITION % Cyclooxygenase
Description: The effectiveness of the compounds of the invention can be determined by means of the inhibition of 5-lipoxygenase or of cyclo-oxygenase. The research was carried out as follows:
In this test the 12-HHT amount of 12-hydroxyheptadecatriene acid or prostaglandin E2 amount formed by bovine thrombocytes following addition of calcium ionophore is determined by uv detection following HPLC separation. Following centrifuging of the bovine blood, the thrombocytes are isolated from the surnatant. The enzyme reaction and the isolation of the formed metabolites take place as when determining the 5-lipoxygenase inhibition, however the incubation time was one minute. The detection of 12 HHT following HPLC separation takes place at 232 nm.
Tables 1 and 2 list the test results for the compounds of the invention, The test substances were at concentrations of 10 μM.

**Q.** With O=C(O)CCc1c(-c2ccc(Oc3ccccc3)cc2)c(-c2ccccc2)c2n1CCC2 as the molecule, how does the inhibition at 10 µM read?
**A.** 70%

**Q.** For CC1(C)Cc2c(-c3ccccc3)c(-c3ccccc3)c(CCC(=O)O)n2C1 [Phenyl, Phenyl, (CH2)2 CO2 H, CH3, CH3], which inhibition at 10 µM is on record?
**A.** 97%

**Q.** How did the inhibition at 10 µM turn out when CC1(C)Cc2c(-c3ccccc3)c(-c3ccccc3)c(CC(=O)O)n2C1 [Phenyl, Phenyl, CH2 CO2 H, CH3, CH3, (2,2-dimethyl-6,7-diphenyl-2,3-dihydro-1H-pyrrolizine-5-yl)-acetic acid] was run?
**A.** 99%

**Q.** How did the inhibition at 10 µM turn out when O=C(O)Cc1c(-c2ccccc2)c(-c2ccccc2)c2n1CCC2 [Phenyl, Phenyl, CH2 CO2 H, H, H] was run?
**A.** 91%

Target: T2, 5-lipoxygenase (Bos taurus, UniProt F1MQ78)
T2 construct: The source for 5-lipoxygenase were bovine granulocytes; endogenous in cells; host or cells: granulocytes isolated from EDTA-anticoagulated bovine blood
T2 sequence (F1MQ78 1-674): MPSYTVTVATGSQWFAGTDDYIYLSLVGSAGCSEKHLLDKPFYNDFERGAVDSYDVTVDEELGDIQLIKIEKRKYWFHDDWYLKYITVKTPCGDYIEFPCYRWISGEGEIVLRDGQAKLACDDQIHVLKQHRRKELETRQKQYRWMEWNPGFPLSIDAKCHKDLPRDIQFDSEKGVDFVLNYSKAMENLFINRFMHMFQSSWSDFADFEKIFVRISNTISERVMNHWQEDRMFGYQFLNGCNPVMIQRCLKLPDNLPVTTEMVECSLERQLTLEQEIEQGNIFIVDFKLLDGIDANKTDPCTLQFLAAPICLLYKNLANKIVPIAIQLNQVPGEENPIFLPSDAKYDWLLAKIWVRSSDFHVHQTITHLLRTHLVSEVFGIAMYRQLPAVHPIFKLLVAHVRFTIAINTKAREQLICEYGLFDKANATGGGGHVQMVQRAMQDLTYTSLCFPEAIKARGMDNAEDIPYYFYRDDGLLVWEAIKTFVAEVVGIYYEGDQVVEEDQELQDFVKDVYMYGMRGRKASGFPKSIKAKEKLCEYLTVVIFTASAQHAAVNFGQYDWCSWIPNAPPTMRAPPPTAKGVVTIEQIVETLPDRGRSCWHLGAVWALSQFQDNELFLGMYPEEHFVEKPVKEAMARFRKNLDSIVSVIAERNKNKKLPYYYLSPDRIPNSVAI
Assay: inhibition of 5-lipoxygenase (LTB4 formed by calcium-ionophore stimulated bovine granulocytes)
Type: cell-based
Details: Table 1, 3,3 μM

**Q.** With CC1(C)Cc2c(-c3ccccc3)c(-c3ccc(Oc4ccccc4)cc3)c(CCC(=O)O)n2C1 [3-(2,2-dimethyl-6-(4-phenoxyphenyl)-7-phenyl-2,3-dihydro-1H-pyrrolizine-5-yl) propionic acid] as the molecule, how does the inhibition at 3 µM read?
**A.** 98%

Target: T2, 5-lipoxygenase
Assay: as above
Type: cell-based
Details: Table 1
Description: The effectiveness of the compounds of the invention can be determined by means of the inhibition of 5-lipoxygenase or of cyclo-oxygenase. The research was carried out as follows: The source for 5-lipoxygenase were bovine granulocytes which can form leucotrienes just as human granulocytes do. By stimulation with calcium-ionophore (see BIOCHEM. BIOPHYS. ACTA 1984, 795, pp 499-503), mainly LTC4 (leucotriene C4) and LTB4 (leucotriene B4) are formed from endogenous arachidonic acid. The isolation of the granulocytes and the implementation of the enzyme reaction are conventional (see BIOCHEM. BIOPHYS. ACTA 1984, 795 pp 499-503). The blood protected against clotting by EDTA first is centrifuged for that purposed and the thrombotic excess is removed. Following lysis of the erythrocytes with water the lymphocytes and monocytes are separated from the granulocytes by means of a Ficoll gradient. The granulocytes are set to a specific cell number. The enzyme reaction is then begun in the presence or absence of the test substances following the addition of Ca^2+ with calcium ionophore. The synthesis of the leucotrienes is stopped after 5 minutes by adding a mixture of methanol and acetonitrile containing PGB2 as the internal standard and NDGA as the anti-oxidant. Next the samples are diluted in water and processed in the manner described in J. CHROMATOGR. […], 378, pp 208-214. LTB4 is measured at the absorption maximum at 270 nm. The arachidonic acid metabolites are observed present in this research in approximately quantitative manner. Tables 1 and 2 list the test results for the compounds of the invention, The test substances were at concentrations of 10 μM.

**Q.** Which inhibition at 10 µM does the source give for O=C(O)CCc1c(-c2cccc(Cl)c2)c(-c2ccccc2)c2n1CCC2 here?
**A.** 89%

**Q.** For O=C(O)CCc1c(-c2ccc(Cl)cc2)c(-c2ccccc2)c2n1CCC2, which inhibition at 10 µM is on record?
**A.** 98%

**Q.** With COc1ccc(-c2c(-c3ccccc3)c3n(c2CCC(=O)O)CCC3)cc1 as the molecule, how does the inhibition at 10 µM read?
**A.** 91%

**Q.** How did the inhibition at 10 µM turn out when O=C(O)CCc1c(-c2ccc(Oc3ccccc3)cc2)c(-c2ccccc2)c2n1CCC2 was run?
**A.** 98%

**Q.** Which inhibition at 10 µM does the source give for CC1(C)Cc2c(CCC(=O)O)c(-c3ccccc3)c(-c3ccccc3)n2C1 [(CH2)2 CO2 H, Phenyl, Phenyl, CH3, CH3] here?
**A.** 93%

**Q.** How did the inhibition at 10 µM turn out when O=C(O)CCCCc1c(-c2ccccc2)c(-c2ccccc2)n2c1CCC2 [(CH2)4 CO2 H, Phenyl, Phenyl, H, H] was run?
**A.** 86%

**Q.** For CC1(C)Cc2c(CCCCCC(=O)O)c(-c3ccccc3)c(-c3ccccc3)n2C1 [(CH2)5 CO2 H, Phenyl, Phenyl, CH3, CH3], which inhibition at 10 µM is on record?
**A.** 96%

**Q.** O=C(O)CCCCCc1c(-c2ccccc2)c(-c2ccccc2)n2c1CCC2 [(CH2)5 CO2 H, Phenyl, Phenyl, H, H] was tested. Which inhibition at 10 µM did it give?
**A.** 86%

**Q.** Which inhibition at 10 µM does the source give for CC1(C)Cc2c(C=CC(=O)O)c(-c3ccccc3)c(-c3ccccc3)n2C1 [CHCHCO2 H, Phenyl, Phenyl, CH3, CH3] here?
**A.** 91%

**Q.** O=C(O)CCCCc1c(-c2ccccc2)c2n(c1-c1ccccc1)CCC2 [Phenyl, (CH2)4 CO2 H, Phenyl, H, H] was tested. Which inhibition at 10 µM did it give?
**A.** 82%

**Q.** For O=C(O)CCCCCc1c(-c2ccccc2)c2n(c1-c1ccccc1)CCC2 [Phenyl, (CH2)5 CO2 H, Phenyl, H, H], which inhibition at 10 µM is on record?
**A.** 80%

**Q.** How did the inhibition at 10 µM turn out when CCCCCCc1c(-c2ccccc2)c2n(c1C=CC(=O)O)CCC2 [Phenyl, C6 H13, CHCHCO2 H, H, H, 3-(6-(n-HEXYL)-7-PHENYL-2,3-DIHYDRO-1h-PYRROLIZINE-5-YL)-ACRYLIC ACID] was run?
**A.** 82%

**Q.** For CC1(C)Cc2c(-c3ccccc3)c(-c3ccccc3)c(CCC(=O)O)n2C1 [Phenyl, Phenyl, (CH2)2 CO2 H, CH3, CH3], which inhibition at 10 µM is on record?
**A.** 91%

**Q.** For CC1(C)Cc2c(-c3ccccc3)c(-c3ccccc3)c(CC(=O)O)n2C1 [Phenyl, Phenyl, CH2 CO2 H, CH3, CH3, (2,2-dimethyl-6,7-diphenyl-2,3-dihydro-1H-pyrrolizine-5-yl)-acetic acid], which inhibition at 10 µM is on record?
**A.** 94%

**Q.** Which inhibition at 10 µM does the source give for O=C(O)/C=C/c1c(-c2ccccc2)c(-c2ccccc2)c2n1CCC2 [Phenyl, Phenyl, CHCHCO2 H, H, H] here?
**A.** 80%

**Q.** With Cc1ccc(-c2c(-c3ccccc3)c3n(c2CCC(=O)O)CCC3)cc1 [Phenyl, p-Tolyl, (CH2)2 CO2 H, H, H] as the molecule, how does the inhibition at 10 µM read?
**A.** 92%

**Q.** How did the inhibition at 10 µM turn out when O=C(O)CCc1c(-c2cccc3ccccc23)c(-c2ccccc2)c2n1CCC2 [Phenyl, α-naphthyl, (CH2)2 CO2 H, H, H] was run?
**A.** 94%

Same assay, conditions: Table 2

**Q.** For Cc1c(-c2ccccc2)c(-c2ccccc2)c(CCC(=O)O)n1CC(C)(C)C, which inhibition at 10 µM is on record?
**A.** 97%

**Q.** For CCCCn1c(C)c(-c2ccccc2)c(-c2ccccc2)c1CCC(=O)O, which inhibition at 10 µM is on record?
**A.** 94%

**Q.** How did the inhibition at 10 µM turn out when CCCCCn1c(C)c(-c2ccccc2)c(-c2ccccc2)c1CCC(=O)O was run?
**A.** 99%

**Q.** CCCCCCn1c(C)c(-c2ccccc2)c(-c2ccccc2)c1CCC(=O)O was tested. Which inhibition at 10 µM did it give?
**A.** 99%
